Laboratory results taken from patent US10059733B2 (NUCORION PHARMACEUTICALS, INC., priority 2014, dated 2018).
Like-named read-outs stand apart in the source and are kept apart here.

Columns and labels:
HCV luciferase replicon = assay: Isobologram analysis of synergism with antiviral compound in HCV luciferase replicon; assay type: cell-based
Method: Isobologram analysis was conducted to assess the potential synergistic interaction of representative disclosed compounds with representative antiviral compounds. The isobolgram analysis was conducted as previously described by Chou and Talalay (see Chou T. C. and Talalay P. “Analysis of combined drug effects: a new look at a very old problem.” Trends Pharmacol Sci 1983; 4:450-4; and Chou T. C. and Talalay P. “Quantitative analysis of dose-effect relationships: the combined effects of multiple drugs or enzyme inhibitors.” Adv Enzyme Regul 1984; 22:27-55; both of which are incorporated herein by reference in their entirety). The definitions of synergism are those described by Chou (see Chou, T. C. (2006) Theoretical basis, experimental design, and computerized simulation of synergism and antagonism in drug combination studies. Pharmacol Rev. 58(3):621-81, which is incorporated herein by reference in its entirety).
In the synergism studies described herein, the antiviral compound shown in Table 6 was assessed in combination with a representative disclosed compound, Compound 1.

RPK9 cells = assay: TC50 assay in gemcitabine resistant (dCK deficient) RPK9 cells, 48 h; conditions: read-out: TC50 (μM) in RPK9 cells at 48 hr
Method: (§1) Huh7 cells were maintained at 37° C. in a humidified atmosphere at 5% CO2 in DMEM containing 10% FBS. […] The cells were then treated with each compound at concentrations ranging from 500 μM to 0 μM in triplicate in DMEM media containing 2% FBS and 0.5% DMSO and without phenol red. After 48 h of treatment at 37° C., the relative number of living cells in each well was determined by using the CellTiter 96 system (Promega) according to the manufacturer's instructions. The 3-(4,5-dimethylthiazol-2-yl)-5-(3-carboxymethoxyphenyl)-2-(4-sulfophenyl)-2H-tetrazolium (MTS) and phenazine methosulfate (PMS) reagents were added to each well of the 96-well plate and the plate was incubated at 37° C. for approximately 2 h. The absorbance at 490 nm and 650 nm in each well was then determined by using a Flexstation 3 microplate reader ([…]). The absorbance determined at 650 nm was then subtracted from the absorbance determined at 490 nm to correct for light scattering. The corrected absorbance values representing the relative number of live cells in each condition were then plotted as a function of compound concentration, and the data were then fit to the following sigmoidal Emax equation by using Kaleidagraph: y=(Emax*x^Slope)/(TC50^Slope+x^Slope) where y is the relative corrected absorbance value, Emax is the maximum relative inhibition, x is the compound concentration, TC50 is the concentration of the compound at which the total cell population is reduced by 50%, and Slope is the slope of the curve.
PK9 and RPK9 cells were maintained at 37° C. in a humidified atmosphere at 5% CO2 in Roswell Park Memorial Institute (RPMI) media containing 10% FBS. […] The cells were then treated with each compound at concentrations ranging from […] to 0 μM in triplicate in RPMI media containing 2% FBS and 0.5% DMSO and without phenol red. […] The RPK9 cells were derived from the parental PK9 cell line, and are deficient for dCK activity due to the partial deletion of the dCK gene.

PK9 cells = assay: Cell transport: cytotoxicity in PK9 cells with or without ENT1 inhibitor NBTI; conditions: Homo sapiens, PK9, 48 h
Method: as §1
To this end, Huh7 cells or PK9 cells were seeded in 96-well plates at a density of 5,000 cells/well or 2,500 cells/well, respectively, and the plates were incubated at 37° C. for 24 h to allow for cell attachment. The media was then removed from the plates and replaced with media containing 2% FBS, 0.5% DMSO and 10 μM NBTI. […] Subsequently, the cells were treated with each compound at final concentrations ranging from 500 μM to 0 μM in triplicate in media containing 2% FBS, 0.5% DMSO and 10 μM NBTI. […] The TC50 values of each compound in the presence or absence of the ENT1 inhibitor were then compared.

HEK293 = assay: TC50 assay with human cancer cell lines, 96 h: HEK293; assay type: cell-based; conditions: HEK293, 96 h, read-out: TC50 HEK293 (μM)
Method: (§2) Huh7 cells were maintained at 37° C. in a humidified atmosphere at 5% CO2 in DMEM containing 10% FBS. […] The cells were then treated with each compound at concentrations ranging from 500 μM to 0 μM in triplicate in DMEM media containing 2% FBS and 0.5% DMSO and without phenol red. After 48 h of treatment at 37° C., the relative number of living cells in each well was determined by using the CellTiter 96 system (Promega) according to the manufacturer's instructions. The 3-(4,5-dimethylthiazol-2-yl)-5-(3-carboxymethoxyphenyl)-2-(4-sulfophenyl)-2H-tetrazolium (MTS) and phenazine methosulfate (PMS) reagents were added to each well of the 96-well plate and the plate was incubated at 37° C. for approximately 2 h. The absorbance at 490 nm and 650 nm in each well was then determined by using a Flexstation 3 microplate reader (Molecular Dynamics). The absorbance determined at 650 nm was then subtracted from the absorbance determined at 490 nm to correct for light scattering. The corrected absorbance values representing the relative number of live cells in each condition were then plotted as a function of compound concentration, and the data were then fit to the following sigmoidal Emax equation by using Kaleidagraph: y=(Emax*x^Slope)/(TC50^Slope+x^Slope) where y is the relative corrected absorbance value, Emax is the maximum relative inhibition, x is the compound concentration, TC50 is the concentration of the compound at which the total cell population is reduced by 50%, and Slope is the slope of the curve.
(§3) Huh7, HEPG2, HEK293, MCF-7 and BxPC3 cell lines were maintained at 37° C. in a humidified atmosphere at 5% CO2 in DMEM containing 10% FBS. […] The cells were then treated with each compound at concentrations ranging from 500 μM to 0 μM in triplicate in DMEM media containing 2% FBS and 0.5% DMSO and without phenol red.

genotype 1a HCV = assay: Oral administration to HCV-infected chimpanzees, viral load (genotype 1a); assay type: in vivo, chimpanzee
Method: Via oral gavage, two HCV-infected chimpanzees I (male, 56.49 kg and 11 years old; genotype 1b HCV) and II (male, 61.91 kg and 34 years old; genotype 1a HCV) each received a single dosage of 200 mg of Compound 1 in Formulation I while the HCV-infected chimpanzee III (male, 56.19 kg and 18 years old; genotype 1a HCV) was administered a single dosage of 260 mg of the non-phosphorylated analog of Compound 1 (Table 1) in Formulation I. After 12 hours, the HCV viral titer decreased from 24,100 to 10,200 IU/ml (or 58% drop) in Chimpanzee I, from 38,500 to 27,000 IU/ml (or 30% drop) in Chimpanzee II, and from 154,000 to 142,000 IU/ml (or 8% drop) in Chimpanzee III. […] All animals were fasted overnight prior to dosing and a minimum of 2 hours prior to scheduled blood sample collections. Viral load determinations were performed on plasma samples using the HCV TaqMan assay (COBAS® AmpliPrep/COBAS® TaqMan® HCV Test, Version 2, Test Code 1220) for quantitative analysis. […] There were no adverse effects, illness, nor distress seen with the three chimpanzees during the study requiring veterinarian intervention.

BxPC3 = assay: TC50 assay with human cancer cell lines, 96 h: BxPC3; assay type: cell-based; conditions: BXPC-3, 96 h, read-out: TC50 BxPC3 (μM)
Method: as §2, §3

[1] = pH stability in aqueous buffer (HPLC/uv)
Method: In order for a prodrug to be orally bioavailable, it must be stable over a wide range of pH values. […] The relative amount of intact prodrug was then determined by first separating the intact prodrug from any potential degradation products by using reverse-phase high performance liquid chromatography (HPLC) and subsequently quantifying the relative amount of remaining prodrug by uv spectrophotometry.

[2] = Compound 1 0.2 nM + BMS-790052 0.010 nM
[3] = Compound 1 0.4 nM + BMS-790052 0.008 nM
[4] = Compound 1 7.1 nM + BMS-790052 0.006 nM
[5] = Compound 1 14.2 nM + BMS-790052 0.004 nM

## CCCC(CCC)C(=O)Nc1ccn([C@@H]2O[C@H](CO[P@@](=O)(N[C@@H](C)C(=O)OC(C)C)Oc3ccccc3)[C@@H](O)C2(F)F)c(=O)n1 [Compound 1, (S)-isopropyl 2-(((S)-(((2R,3R,5R)-4,4-difluoro-3-hydroxy-5-(2-oxo-4-(2-propylpentanamido)pyrimidin-1(2H)-yl)tetrahydrofuran-2-yl)methoxy)(phenoxy)phosphoryl)amino)propanoate]
HCV luciferase replicon; [2]
  Combination Index: 0.505
  level of synergism: synergism
HCV luciferase replicon; [3]
  Combination Index: 0.410
  level of synergism: synergisn
HCV luciferase replicon; [4]
  Combination Index: 0.468
  level of synergism: synergism
HCV luciferase replicon; [5]
  Combination Index: 0.535
  level of synergism: synergism
HCV luciferase replicon; Compound 1 42.3 nM, BMS-790052 0 nM
  Combination Index: 1.000
HCV luciferase replicon; co-treatment with NS5A inhibitor BMS-790052
  interaction of Compound 1 with BMS-790052 in the inhibition of the HCV luciferase replicon: synergism
HCV luciferase replicon; compound alone, other compound 0 nM
  concentration of the single agent on the IC50 isobologram (Combination Index 1.000): 42.3 nM
RPK9 cells
  CC50: 24.2 ± 6.4 µM
PK9 cells; read-out: TC50 (μM) in PK9 cells at 48 h With NBTI
  CC50: 16.9 µM
PK9 cells; read-out: TC50 (μM) in PK9 cells at 48 h Without NBTI
  CC50: 25.2 µM
HEK293
  CC50: 4.1 ± 0.5 µM
Genotype 1a HCV; Chimpanzee II, single oral dosage 200 mg
  drop of HCV viral titer after 12 hours: 30%
Genotype 1a HCV; Chimpanzee II, single oral dosage 200 mg in Formulation I, titer before 38,500 IU/ml
  HCV viral titer after 12 hours: 27,000 IU/ml
Genotype 1a HCV; single oral dosage, 12 hours
  effectiveness in inhibiting HCV in chimpanzees (comparison): more effective than its non-phosphorylated analog
BxPC3
  CC50: 7.01 ± 0.97 µM
[1]; Pretreatment
  % of Compound 1 remaining: 100%
[1]; pH 1, aqueous buffer, 40° C., 4 hours, 200 μM
  % of Compound 1 remaining: 58%
[1]; pH 2, aqueous buffer, 40° C., 4 hours, 200 μM
  % of Compound 1 remaining: 85%
[1]; pH 4, aqueous buffer, 40° C., 4 hours, 200 μM
  % of Compound 1 remaining: 92%
[1]; pH 6, aqueous buffer, 40° C., 4 hours, 200 μM
  % of Compound 1 remaining: 100%
[1]; pH 8, aqueous buffer, 40° C., 4 hours, 200 μM
  % of Compound 1 remaining: 47%
